# Calls of active or inactive are those of the source.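 The calls were made as follows: active = more than half of replicate measurements showing over 20% loss of kinase signal relative to plate controls; inconclusive = some but at most half of replicates over 20% loss; inactive = no replicate over 20% signal loss.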
# Target: Glycogen synthase kinase-3 alpha (Homo sapiens) (UniProt P49840)
# Assay: concentration-response blocking of human GSK3A – biochemical, luminescence, cell-free homogeneous, retest, dose response (AID 463203)
# Details: GSK-3 alpha enzyme, ADP-Glo luminescence, 60 min
# Chain of Glycogen synthase kinase-3 alpha (Homo sapiens) (P49840 whole entry, looked up): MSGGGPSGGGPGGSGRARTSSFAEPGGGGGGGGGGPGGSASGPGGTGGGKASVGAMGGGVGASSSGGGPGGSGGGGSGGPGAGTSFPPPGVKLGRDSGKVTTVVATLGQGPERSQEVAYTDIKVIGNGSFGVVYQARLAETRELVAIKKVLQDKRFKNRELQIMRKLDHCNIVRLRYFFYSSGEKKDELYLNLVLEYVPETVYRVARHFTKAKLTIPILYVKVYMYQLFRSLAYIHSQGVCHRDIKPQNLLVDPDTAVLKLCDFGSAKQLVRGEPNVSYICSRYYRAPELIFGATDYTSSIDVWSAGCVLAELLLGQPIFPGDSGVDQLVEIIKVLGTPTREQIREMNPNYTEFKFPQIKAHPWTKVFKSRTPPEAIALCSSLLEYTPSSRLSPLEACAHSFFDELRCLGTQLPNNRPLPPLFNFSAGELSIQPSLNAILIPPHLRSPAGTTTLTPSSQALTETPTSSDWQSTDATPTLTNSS
row,SMILES,AC50
1,CN(C)/C=C/c1[nH]c(=O)[nH]c(=O)c1[N+](=O)[O-],> 30 µM (inactive)
2,CSc1nc2n(n1)C(c1ccccn1)C1=C(CC(C)(C)CC1=O)N2 (stereo not drawn),> 30 µM (inactive)
3,COc1ccc(-c2nc(N)ncc2-c2ccccc2)c(O)c1,15.5 µM
4,Nc1ccc2nc(C3CCCCC3)[nH]c2c1,> 30 µM (inactive)
5,Cc1ccc(SCCc2cc[n+](CC(=O)c3ccccc3)cc2)cc1,> 30 µM (inactive)
6,COc1cc(NC(=O)c2nnn(Cc3ccc(SC)cc3)c2N)cc(OC)c1,13.6 µM
7,Cn1c(O)c(C=NCCc2c[nH]c3ccccc23)c(=O)n(C)c1=O,27.9 µM
8,CN(C)Cc1c(C(=O)N/N=C/C=C/c2ccccc2)nnn1-c1nonc1N,30 µM
9,CC(=O)c1cccc(NC(=O)c2cc(-n3cnnc3)ccc2Cl)c1,> 30 µM (inactive)
10,COCCCNc1ncnc2nc[nH]c12,> 30 µM (inactive)
11,CC(=O)C(Sc1ccc2nnc(-c3ccncc3)n2n1)C(C)=O,> 30 µM (inactive)
12,Cc1ccc2c(c1)N(CCC(=O)NC(C)C)C(=O)CO2,> 30 µM (inactive)
13,Fc1ccccc1-c1n[nH]c(=S)n1/N=C/c1c[nH]c2ccccc12,22.5 µM
14,Cc1ccc(NC(=O)CSCc2nc3c(nnn3Cc3ccc(F)cc3)c(=O)[nH]2)c(C)c1,> 30 µM (inactive)
15,CCCC1=C(C(=O)OCC)C(c2ccc(O)cc2)n2ncnc2N1 (stereo not drawn),11.2 µM
16,Nc1c(S(=O)(=O)c2ccccc2)nnn1-c1ccccc1,> 30 µM (inactive)
17,COCCNC(=O)c1ccc(Cn2c(=S)[nH]c3cc4c(cc3c2=O)OCO4)cc1,> 30 µM (inactive)
18,O=C(Nc1sc2c(c1C(=O)N1CCOCC1)CCCCC2)c1cccnc1,> 30 µM (inactive)
19,CCOc1cc(/C=C2\SC(N3CCCCC3)=NC2=O)ccc1O,> 30 µM (inactive)
20,O=C(CSc1ncccc1-c1nc2ccccc2[nH]1)NCc1ccco1,> 30 µM (inactive)
21,CCCCOC(=O)n1ccc(C(=O)Nc2ccccc2OC)n1,29.6 µM
22,O=c1c(O[C@@H]2O[C@H](CO)[C@@H](O)[C@H](O)[C@H]2O)c(-c2ccc(O)cc2)oc2cc(O)cc(O)c12,30.4 µM
23,O=C(CNC(=O)c1ccccc1)N/N=C/C=C/c1ccccc1,> 30 µM (inactive)
24,CCOC(=O)CC1COc2ccccc2N1C(=O)c1ccc(C)cc1 (stereo not drawn),> 30 µM (inactive)
25,CCOC(=O)CC(C#N)c1c[nH]c2ccccc12 (stereo not drawn),> 30 µM (inactive)
26,COc1ccc(NC(=O)c2ccc(NCCCN3CCOCC3)c([N+](=O)[O-])c2)cc1,> 30 µM (inactive)

row,SMILES,AC50
1,CSc1ccc(/C=C2\NC(=O)NC2=O)cc1,27.9 µM
2,COc1cc(Br)c(C2C(C#N)=C(N)Oc3n[nH]c(-c4cccnc4)c32)cc1OC (stereo not drawn),> 30 µM (inactive)
3,CCN(CC)CCCN(Cc1cc2cc3c(cc2[nH]c1=O)OCO3)C(=O)Nc1ccccc1OC,> 30 µM (inactive)
4,COc1cccc(CN2CCN(Cc3cc(OC)c(OC)cc3[N+](=O)[O-])CC2)c1,> 30 µM (inactive)
5,O=C1NC(=O)/C(=C/c2ccc(O)cc2)S1,27.2 µM
6,COc1ccc(OC)c(C2CC(=O)N3CN(c4cccc(Cl)c4)CSC3=C2C#N)c1 (stereo not drawn),> 30 µM (inactive)
7,Fc1cccc(/C=N/Nc2ccccn2)c1,> 30 µM (inactive)
8,CCC(=N\NC(=O)COc1ccccc1OC)/C(CC)=N/NC(=O)COc1ccccc1OC,> 30 µM (inactive)
9,COc1cc(C(=O)NNC(=O)C2CSC3(C)CCC(=O)N23)cc(OC)c1OC (stereo not drawn),> 30 µM (inactive)
10,COc1ccc(C(=O)OCC(=O)Nc2c(C)n(C)n(-c3ccccc3)c2=O)cc1,> 30 µM (inactive)
11,COc1ccc(OC)c(C2CC(=O)Nc3n[nH]c(-c4ccccc4)c32)c1 (stereo not drawn),> 30 µM (inactive)
12,C=CCOc1ccc(/C=N/n2cncn2)cc1OC,> 30 µM (inactive)
13,COc1cccc(-n2c(SCC(N)=O)nnc2-c2ccco2)c1,> 30 µM (inactive)
14,CC(=O)C(Sc1ccc2nnc(-c3ccc(C)cc3)n2n1)C(C)=O,> 30 µM (inactive)
15,CCn1c2ccc(Cl)cc2c2nc3ccccc3nc21,> 30 µM (inactive)
16,COC(=O)c1c(NC(=O)COC(=O)c2ccccn2)sc(C)c1C,> 30 µM (inactive)
17,Cc1ccc(/C=C2\C(=O)Nc3ccccc32)o1,31.4 µM
18,COc1ccccc1N1C(=O)C2C(c3ccccc3F)NN(C(=O)c3ccc(C)cc3)C2C1=O (stereo not drawn),> 30 µM (inactive)
19,Nc1ccccc1-c1nc2ccccc2[nH]1,> 30 µM (inactive)
20,Fc1ccc(-c2nnc3ccc(N4CCCC4)nn23)cc1,5.64 µM
21,O=c1cc(-c2ccco2)oc2c1ccc1ccccc12,7.17 µM
22,Cc1cccc2c(N=Nc3ccccc3)c(O)[nH]c12,> 30 µM (inactive)
23,CCOc1cc(/C=N/NC(=O)N/N=C/c2ccc(O)c(OCC)c2)ccc1O,> 30 µM (inactive)
24,Cc1ccc(C2CC(=O)N3CN(Cc4ccco4)CSC3=C2C#N)cc1 (stereo not drawn),> 30 µM (inactive)
25,Cc1cc(NC(=O)CCSc2nc(-c3ccco3)cc(C(F)(F)F)n2)n(-c2ccccc2)n1,> 30 µM (inactive)
26,CC1CC(=O)c2cnc(NCC3CCCO3)nc2C1 (stereo not drawn),> 30 µM (inactive)

row,SMILES,AC50
1,COC(=O)c1cnn(C(=O)c2ccccc2Br)c1N,> 30 µM (inactive)
2,O=C(CSCCO)Nc1ccc([N+](=O)[O-])cc1,> 30 µM (inactive)
3,N#CCC(=O)Nc1sc2c(c1C(N)=O)CCCC2,20.2 µM
4,CC(=O)Nc1cccc(-c2csc(N)n2)c1,> 30 µM (inactive)
5,COc1cc(C2c3sc(=O)[nH]c3SC3C(=O)N(c4ccc(C)cc4)C(=O)C32)ccc1O (stereo not drawn),> 30 µM (inactive)
6,CCOC(=O)c1cc(-c2ccc(F)cc2)n(CC(=O)NCc2ccccn2)c1C,> 30 µM (inactive)
7,O=C1/C(=C/c2ccc3c(c2)OCO3)Oc2cc(OCC(=O)N3CC(O)C[C@H]3C(=O)O)ccc21 (stereo partly drawn),4.07 µM
8,COc1cccc(C2CC(=O)N3CN(c4ccccc4F)CSC3=C2C#N)c1 (stereo not drawn),> 30 µM (inactive)
9,CCc1cc2c(N3CCN(c4nnc(CC)s4)CC3)ncnc2s1,16 µM
10,COc1ccc(COC(=O)C2=C(C)NC(=O)NC2c2ccc(OC)c(OC)c2)cc1 (stereo not drawn),> 30 µM (inactive)
11,NC(=O)c1cc([N+](=O)[O-])ccc1NCc1ccc(N)cc1,8.36 µM
12,Cc1ccc(N2C(S)=C(C#N)C(=O)NC2c2ccco2)cc1 (stereo not drawn),> 30 µM (inactive)
13,O=C(CSc1nc2nc(-c3cccs3)cc(C(F)(F)F)c2c(=O)[nH]1)Nc1ccc(F)c(F)c1,> 30 µM (inactive)
14,CCc1nnc(NC(=O)CCN2C(=O)c3ccccc3C2=O)s1,> 30 µM (inactive)
15,Cc1c(Nc2ncccc2C(=O)O)cccc1C(F)(F)F,> 30 µM (inactive)
16,CC1(C)CC(=O)C(C(C2=C(O)CC(C)(C)CC2=O)c2ccco2)C(=O)C1 (stereo not drawn),> 30 µM (inactive)
17,CCC(=NCCO)c1c(O)n(C2CCCCC2)c(=O)[nH]c1=O,19.4 µM
18,CCOC(=O)Cc1c[nH]c2ccccc12,> 30 µM (inactive)
19,Cc1cc(N/N=C/c2ccccc2Br)nc2ccccc12,> 30 µM (inactive)
20,Cn1nnnc1SCC(=O)Nc1nn(-c2ccccc2)nc1C(N)=O,24.2 µM
21,COc1ccc(NC(=O)Nc2ccc(F)cc2F)c(C)c1,> 30 µM (inactive)
22,Cc1nnc(SCC(=O)Nc2ccc(Br)cn2)[nH]c1=O,13.7 µM
23,CC(C)(C)N=Cc1c(O)ccc2oc3c(c12)CCCC3,> 30 µM (inactive)
24,Cc1ccnc(NC(=O)CCC(=O)N(CC(=O)NCc2ccc(F)cc2)Cc2ccccc2)c1,11.4 µM
25,Cc1cc(=O)[nH]c2c(C)c(N)ccc12,> 30 µM (inactive)
26,COC(=O)CSc1nc(NCC(C)C)nc(N2CCOCC2)n1,> 30 µM (inactive)

row,SMILES,AC50
1,Cc1cccc(C)c1OC(=O)C(c1ccccc1)c1ccccc1,> 30 µM (inactive)
2,CCOc1cc(/C=C2\SC(N3CCCC(C)C3)=NC2=O)ccc1O (stereo not drawn),8.87 µM
3,COc1ccccc1Nc1ccc(S(=O)(=O)N2CCCCC2)cc1[N+](=O)[O-],> 30 µM (inactive)
4,CCSc1nnc([C@@H](N)Cc2c[nH]c3ccccc23)o1,> 30 µM (inactive)
5,C[C@H](CO)N1C[C@H](C)[C@@H](CN(C)S(=O)(=O)c2ccccc2)Oc2c(NS(=O)(=O)c3ccc(F)cc3)cccc2C1=O,> 30 µM (inactive)
6,O=C(c1coc2ccc(O)c(CN3CCOCC3)c12)C1CC1,22.8 µM
7,COc1ccc(NC(=O)CNc2cccc(S(=O)(=O)N3CCCCCC3)c2)c([N+](=O)[O-])c1,> 30 µM (inactive)
8,O=C(CSc1nnc(SCc2ccccc2Cl)s1)N/N=C/c1ccc(C(=O)O)cc1,5.94 µM
9,CC(C)=CCc1cc(-c2oc3cc(O)cc(O)c3c(=O)c2O)ccc1O,9.4 µM
10,COc1cccc(/C=C2\Oc3cc(OCC(=O)N4CCC[C@H]4C(=O)O)ccc3C2=O)c1,> 30 µM (inactive)
11,O=C1CNC(=S)N1CCCn1ccnc1,> 30 µM (inactive)
12,CCOc1ccc(-c2c(C(=O)N/N=C(\C)c3cccnc3)nnn2-c2nonc2N)cc1,> 30 µM (inactive)
13,Fc1ccc(-c2nc3n(n2)Cc2ccccc2-3)cc1,> 30 µM (inactive)
14,CCOC(=O)c1nn(-c2ccc(Cl)cc2)c2nc(Nc3ccccc3)cc(=O)n12,> 30 µM (inactive)
15,O=C(CSCCc1ccccn1)Nc1ccccn1,> 30 µM (inactive)
16,NS(=O)(=O)c1ccc(Nc2nc(-c3ccc(F)cc3)cs2)cc1,26.2 µM
17,Cc1nc(SCC(=O)N(CC(C)C)C2CCS(=O)(=O)C2)c2ccccc2n1 (stereo not drawn),> 30 µM (inactive)
18,COC(=O)[C@@H]1[C@H](CCc2ccccc2)NC(=O)N(Cc2ccccc2)[C@@H]1C,> 30 µM (inactive)
19,Cc1nc(Nc2ccc(F)cc2)nc(Nc2ccc(F)cc2)c1[N+](=O)[O-],> 30 µM (inactive)
20,NC(=O)c1cccc(S(=O)(=O)N2CC(c3ccccc3)CC2=O)c1 (stereo not drawn),> 30 µM (inactive)
21,COc1ccc(OCC(=O)N/N=C/c2ccc(N(C)C)cc2)cc1,> 30 µM (inactive)
22,CC1=NN(c2nc(-c3ccc(Cl)cc3)cs2)C(=O)C1,> 30 µM (inactive)
23,Cc1ccc(OCC(=O)NNC(=O)C(C)Sc2ncnc3sc(C)c(C)c23)cc1 (stereo not drawn),> 30 µM (inactive)
24,COC(=O)[C@H](C)NC(=O)NCc1ccccc1F,> 30 µM (inactive)
25,COc1ccccc1NC(=O)CSc1ccc2nnc(-c3ccc(C)cc3)n2n1,19.2 µM

# Reference: PubChem BioAssay AID463203 (Broad Institute, 2010)
